Test results taken from patent EP0728012B1, “NOVEL GnRH ANALOGUES WITH ANTITUMOUR EFFECTS AND PHARMACEUTICAL COMPOSITIONS THEREOF” (Lovas, Sandor, priority 1994, dated 1996).

Tests used:
[1] = tested on: MCF-7 human mammary carcinoma cell line; test: Inhibition of colony formation (dose-survival relation, Example 18); type: cell-based; conditions: 50 µM (active substance), treated once
[2] = tested on: MDA-MB-231 human mammary carcinoma cell line; test: as above; type: cell-based; conditions: 50 µM
[3] = tested on: PC3 human prostate carcinoma cell line; test: as above; type: cell-based; conditions: 50 µM
[4] = tested on: Ishikawa; test: Inhibition of colony formation by GnRH analogues (dose-survival, Example 48); type: cell-based, human; conditions: within the dose range used (1-50 µM)
Protocol: (§1) The examination gives accurate information about the cell-damaging effect of the substance tested as a function of varying doses. The treatment was carried out once; the colonies formed from the surviving cells were counted after 8 - 12 days. […] A part of the arrested cells again entered the cycle, another part of them might be destroyed (apoptosis). […] In the case of a dose-response investigation, colonies containing less than 15 cells were not counted. 300 cells were put into each Petri dishes of 3.5 cm in diameter. The treatment was once carried out 24 hours after setting, then the colonies formed were counted after 8 - 12 days. The cells were treated once after 24 hours with 1-50 µM of various GnRH analogues of Examples above or with 1 - 50 µM of GnRH-III, respectively. The percentages of inhibition obtained on MCF-7, MDA-MB-231, PC3 and Ishikawa cells, respectively, together with the dose of the active agent used are shown in Table VIII.

[5] = tested on: MCF-7; test: as above; type: cell-based, human; conditions: 50 µM, treated once
Protocol: as §1

[6] = tested on: MDA-MB-231; test: as above; type: cell-based, human; conditions: 50 µM
Protocol: as §1

[7] = tested on: PC3; test: as above; type: cell-based, human; conditions: within the dose range used (1-50 µM)
Protocol: as §1

[8] = tested on: MDA-MB-231 xenograft; test: In vivo antitumour effect on MDA-MB-231 xenograft in immunosuppressed mice; set-up: species or system CBA/Ca mice
Protocol: The immunosuppression of mice was carried out by using the method of Steel et al. [Br. J. Cancer, 37, 224-230 (1978)]. Immunosuppression and xeno-transplantation
CBA-Ca female mice of about 6 weeks old were thymectomized and then, after one week, they were irradiated with 60Co (whole body irradiation; the lethal dose is 9.5 Gray). Within 24 hours 3 to 5 x 10^5 myelocytes were injected into the animals. Beneath the skin of the immunosuppressed mice 2 x 10^7 tumour cells or, in the case of later passages, […] were implanted. […] The treatment with steroid hormone was stopped by at least one week before beginning the investigation.
Recent investigations have begun on 28 animals bearing MCF-7 xenograft and on 28 animals bearing MDA-MB-231 xenograft. On animals bearing MCF-7 tumour the treatment was commenced in the 5th week following xeno-transplantation; the tumour volume was 205 to 225 mm^3. On animals bearing MDA-MB-231 tumour, the treatment was started in the 4th week after xeno-transplantation with a tumour volume of 140 to 150 mm^3. […] The control groups were daily treated with physiological saline s.c. (Each treated group consisting of 7 animals).
A more recent study was started on 28 animals bearing MDA-MB-231 xenograft. The treatment was begun in the 4th or 5th week following xenotransplantation. The tumour volume was 0.165 to 0.194 cm^3. […] (For treatment of the control group, see the preceding Examples). Each group consisted of 7 animals.

[9] = tested on: rat hypophysis; conditions: superfusion, relative to human GnRH; cited from earlier work
[10] = prolonged treatment for three cycles; high doses; cited from earlier work
[11] = MDA-MB-231 xenograft, after 9 week treatment, 100 µg daily s.c.
[12] = Table V, treatment week 2, 1x100 µg daily s.c.
[13] = Table V, treatment week 4, 1x100 µg daily s.c.
[14] = Table V, treatment week 6, 1x100 µg daily s.c.
[15] = week 0, daily s.c., 1 x 100 µg series
[16] = week 1, daily s.c., 1 x 100 µg series
[17] = week 2, daily s.c., 1 x 100 µg series
[18] = week 3, daily s.c., 1 x 100 µg series
[19] = week 4, daily s.c., 1 x 100 µg series
[20] = week 5, daily s.c., 1 x 100 µg series
[21] = week 6, daily s.c., 1 x 100 µg series
[22] = week 7, daily s.c., 1 x 100 µg series

Compound: NCCCC[C@H](NC(=O)[C@H](Cc1c[nH]c2ccccc12)NC(=O)[C@H](CC(=O)O)NC(=O)[C@H](Cc1c[nH]cn1)NC(=O)[C@H](CO)NC(=O)[C@H](Cc1c[nH]c2ccccc12)NC(=O)[C@H](Cc1c[nH]cn1)NC(=O)[C@@H]1CCC(=O)N1)C(=O)N1CCC[C@H]1C(=O)NCC(N)=O [GnRH-III, reference compound]
- % Inhibition of colony formation [1]: 65%
- % Inhibition of colony formation [2]: 69%
- % Inhibition of colony formation [3]: 21%
- inhibition of colony formation [4]: did not inhibit
- % Inhibition of the colony formation [5]: 45%
- % Inhibition of the colony formation [6]: 49%
- inhibition of colony formation [7]: 21%
- rate of tumour growth ([8]; MDA-MB-231 xenograft, 100 µg daily s.c.): did not inhibit
- Volume (cm^3) of tumours [8, 11]: 2.017 ± 0.585 cm^3
- Weight (g) of tumours [8, 11]: 1.84 ± 0.52 g
- Inhibition % [8, 12]: 14%
- Tumour volume as control (%) [8, 12]: 86%
- Inhibition % [8, 13]: 15%
- Tumour volume as control (%) [8, 13]: 85%
- Inhibition % [8, 14]: 15%
- Tumour volume as control (%) [8, 14]: 85%
- Tumour volume (cm^3) [8, 15]: 0.19 cm^3
- Tumour volume as control (%) [8, 15]: 115%
- Tumour volume (cm^3) [8, 16]: 0.26 cm^3
- Tumour volume as control (%) [8, 16]: 113%
- Tumour volume (cm^3) [8, 17]: 0.36 cm^3
- Tumour volume as control (%) [8, 17]: 86%
- Tumour volume (cm^3) [8, 18]: 0.47 cm^3
- Tumour volume as control (%) [8, 18]: 85%
- Tumour volume (cm^3) [8, 19]: 0.55 cm^3
- Tumour volume as control (%) [8, 19]: 85%
- Tumour volume (cm^3) [8, 20]: 0.81 cm^3
- Tumour volume as control (%) [8, 20]: 87%
- Tumour volume (cm^3) [8, 21]: 1.04 cm^3
- Tumour volume as control (%) [8, 21]: 85%
- Tumour volume (cm^3) [8, 22]: 1.28 cm^3
- Tumour volume as control (%) [8, 22]: 101%
- LH-releasing effect [9]: about thousand times weaker than that of the human GnRH
- ovulation of female rats [10]: did not inhibit the ovulation
